Measured values as given in PMC8041784, “Preference of Proteomonas sulcata anion channelrhodopsin for NO3^− revealed using a pH electrode method” (Scientific Reports, 2021).

Legend:
GtACR1 [1] = molecular target: T1, GtACR1 (Guillardia theta, UniProt L1J207); test: light-induced pH change of yeast cell suspension (pH electrode); assay type: cell-based; settings: 300 mM NaNO3; 530 nm LED 10 mW/cm^2; initial pH about 5; about 16 °C
T1 construct: gene GUITHDRAFT_111593; 295 residues, C-terminal 8xHis tag, codon-optimised gene, expressed in Pichia pastoris SMD1168H cells; also purified in DDM
T1 sequence (L1J207 entry or part of it): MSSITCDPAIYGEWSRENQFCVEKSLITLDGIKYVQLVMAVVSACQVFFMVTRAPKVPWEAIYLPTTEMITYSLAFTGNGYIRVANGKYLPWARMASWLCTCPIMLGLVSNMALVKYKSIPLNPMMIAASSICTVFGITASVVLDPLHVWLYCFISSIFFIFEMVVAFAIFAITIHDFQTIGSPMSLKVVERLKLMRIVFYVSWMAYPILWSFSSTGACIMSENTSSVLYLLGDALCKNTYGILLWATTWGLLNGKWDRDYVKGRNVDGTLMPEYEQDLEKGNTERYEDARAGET

GtACR1 [2] = molecular target: T1, GtACR1; test: visible absorption spectrum of purified protein; assay type: binding; settings: covalent (retinal protonated Schiff base); 10 mM MOPS pH 7, 1 M NaCl, 0.05% DDM

| SMILES | light-induced pH change of yeast cell suspension (pH electrode) (GtACR1 [1]) | visible absorption spectrum of purified protein (GtACR1 [2]) |
| --- | --- | --- |
| O=[N+]([O-])O [NO3^−] | significant transport activities were obtained for the anions except for F^− and Asp^− | – |
| CC1=C(/C=C/C(C)=C/C=C/C(C)=C/C=O)C(C)(C)CCC1 [all-trans-retinal] | – | Visible absorption spectrum of purified GtACR1 |
